US11535607B2, “Isoindolines as HDAC inhibitors” (Valo Health, Inc., priority 2018, dated 2022)
Where a name gives a salt, the structure may show the parent alone.

Target: full-length human HDAC11 (Homo sapiens (Human), UniProt Q96DB2)
Test: Probe binding HDAC11 time resolved fluorescence (TRF) assay
Conditions: Table 2, read-out: HDAC11 IC50 Range
Description: The probe binding HDAC11 assay was performed using a time resolved fluorescence (TRF) assay format. Recombinant N-terminal GST tag full-length human HD AC 11 was expressed and purified from baculovirus in Sf9 insect cells (SignalChem, #H93-30G-1000). […] 4 μL of 2× probe and 2× anti-GST Terbium (Cisbio, #61GSTXLB) was added to assay plates followed by 4 μL of 2×HDAC11.
Data from HD AC 11 Assays were reported as percent inhibition (inh) compared with control wells based on the following equation: % inh=1−((FLU−AveLow)/(AveHigh−AveLow)) where FLU=measured time resolved fluorescence. AveLow=average time resolved fluorescence of no enzyme control (n=32). AveHigh=average time resolved fluorescence of DMSO control (n=32). IC50 values were determined by curve fitting of the standard 4 parameter logistic fitting algorithm included in the Activity Base software package: IDBS XE Designer Model205. Data is fitted using the Levenburg Marquardt algorithm.

Chain of full-length human HDAC11 (Q96DB2 whole entry): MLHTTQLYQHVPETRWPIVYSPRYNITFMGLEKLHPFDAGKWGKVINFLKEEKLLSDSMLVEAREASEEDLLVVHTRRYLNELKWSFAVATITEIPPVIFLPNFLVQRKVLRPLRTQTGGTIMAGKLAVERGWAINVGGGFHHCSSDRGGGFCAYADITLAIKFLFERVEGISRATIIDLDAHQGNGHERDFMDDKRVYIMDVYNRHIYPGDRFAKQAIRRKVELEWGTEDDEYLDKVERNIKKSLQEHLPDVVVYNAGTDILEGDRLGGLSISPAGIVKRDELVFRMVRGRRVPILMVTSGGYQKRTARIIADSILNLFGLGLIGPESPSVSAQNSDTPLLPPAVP

SMILES: O=C(NO)c1cccc2c1CN(c1nc3c([nH]1)C[C@H](C(F)(F)F)CC3)C2 (single isomer, unassigned) [Compound 2-1, hydrochloride]
- IC50: < 500 nM

SMILES: O=C(NO)c1cccc2c1CN(c1nc3c([nH]1)C[C@@H](C(F)(F)F)CC3)C2 (single isomer, unassigned) [Compound 2-2, hydrochloride]
- IC50: < 500 nM

SMILES: O=C(NO)c1cccc2c1CN(c1nc3c([nH]1)CC(C(F)(F)F)CC3)C2 (stereo not shown) [Compound 1-1, N-hydroxy-2-(5-(trifluoromethyl)-4,5,6,7-tetrahydro-1H-benzo[d]imidazol-2-yl)isoindoline-4-carboxamide]
- IC50: < 500 nM

SMILES: CCCc1cnc(N2Cc3cccc(C(=O)NO)c3C2)[nH]1 [Compound 1-3, N-hydroxy-2-(5-propyl-1H-imidazol-2-yl)isoindoline-4-carboxamide]
- IC50: > 1000 nM

SMILES: CC1(C)CCc2nc(N3Cc4cccc(C(=O)NO)c4C3)[nH]c2C1 [Compound 1-5, 2-(5,5-dimethyl-4,5,6,7-tetrahydro-1H-benzo[d]imidazol-2-yl)-N-hydroxyisoindoline-4-carboxamide hydrochloride]
- IC50: 500 to 1000 nM

SMILES: COCCn1c(N2Cc3cccc(C(=O)NO)c3C2)nc2ccccc21 [Compound 1-7, N-hydroxy-2-(1-(2-methoxyethyl)-1H-benzo[d]imidazol-2-yl)isoindoline-4-carboxamide]
- IC50: > 1000 nM

SMILES: O=C(NO)c1cccc2c1CN(c1nc3ccncc3[nH]1)C2 [Compound 3-1, N-hydroxy-2-(3H-imidazo[4,5-c]pyridin-2-yl)isoindoline-4-carboxamide]
- IC50: > 1000 nM

SMILES: O=C(NO)c1cccc2c1CN(c1nc3cccnc3[nH]1)C2 [Compound 4-1, N-hydroxy-2-(3H-imidazo[4,5-b]pyridin-2-yl)isoindoline-4-carboxamide]
- IC50: > 1000 nM

SMILES: O=C(NO)c1cccc2c1CN(c1nc3ncccc3o1)C2 [Compound 5-1, N-hydroxy-2-(oxazolo[4,5-b]pyridin-2-yl)isoindoline-4-carboxamide hydrochloride]
- IC50: < 500 nM

SMILES: O=C(NO)c1cccc2c1CN(c1nc3ccncc3o1)C2 [Compound 5-2, N-hydroxy-2-(oxazolo[5,4-c]pyridin-2-yl)isoindoline-4-carboxamide]
- IC50: > 1000 nM

SMILES: O=C(NO)c1cccc2c1CN(c1nc3cnccc3o1)C2 [Compound 6-1, N-hydroxy-2-(oxazolo[4,5-c]pyridin-2-yl)isoindoline-4-carboxamide hydrochloride]
- IC50: 500 to 1000 nM

SMILES: O=C(NO)c1cccc2c1CN(c1nc3cccnc3o1)C2 [Compound 6-2, N-hydroxy-2-(oxazolo[5,4-b]pyridin-2-yl)isoindoline-4-carboxamide]
- IC50: > 1000 nM

SMILES: O=C(NO)c1cccc2c1CN(c1ncc3ccccc3n1)C2 [Compound 7-1, N-hydroxy-2-(quinazolin-2-yl)isoindoline-4-carboxamide]
- IC50: > 1000 nM

SMILES: O=C(NO)c1cccc2c1CN(c1ccc3ncccc3n1)C2 [Compound 7-3, N-hydroxy-2-(1,5-naphthyridin-2-yl)isoindoline-4-carboxamide]
- IC50: > 1000 nM

SMILES: Cc1cnc(N2Cc3cccc(C(=O)NO)c3C2)[nH]1 [Compound 7-5, N-hydroxy-2-(5-methyl-1H-imidazol-2-yl)isoindoline-4-carboxamide]
- IC50: > 1000 nM

SMILES: O=C(NO)c1cccc2c1CN(c1cnc3cccnc3c1)C2 [Compound 8-1, N-hydroxy-2-(1,5-naphthyridin-3-yl)isoindoline-4-carboxamide]
- IC50: > 1000 nM

SMILES: O=C(NO)c1cccc2c1CN(c1ccc3c(c1)OCCN3)C2 [Compound 9-1, 2-(3,4-dihydro-2H-benzo[b][1,4]oxazin-7-yl)-N-hydroxyisoindoline-4-carboxamide hydrochloride]
- IC50: 500 to 1000 nM

SMILES: O=C(NO)c1cccc2c1CN(c1ccc3c(c1)NCCO3)C2 [Compound 9-2, 2-(3,4-dihydro-2H-benzo[b][1,4]oxazin-6-yl)-N-hydroxyisoindoline-4-carboxamide]
- IC50: > 1000 nM

SMILES: O=C(NO)c1cccc2c1CN(c1nc3ncccc3s1)C2 [Compound 10-1, N-hydroxy-2-(thiazolo[4,5-b]pyridin-2-yl)isoindoline-4-carboxamide]
- IC50: > 1000 nM

SMILES: O=C(NO)c1cccc2c1CN(c1nc3cc(C(F)(F)F)ccc3s1)C2 [Compound 11-1, N-hydroxy-2-(5-(trifluoromethyl)benzo[d]thiazol-2-yl)isoindoline-4-carboxamide]
- IC50: < 500 nM

SMILES: O=C(NO)c1cccc2c1CN(c1nc3c([nH]1)CNCC3)C2 [Compound 13-1, N-hydroxy-2-(4,5,6,7-tetrahydro-3H-imidazo[4,5-c]pyridin-2-yl)isoindoline-4-carboxamide]
- IC50: > 1000 nM

SMILES: CC(=O)N1CCc2nc(N3Cc4cccc(C(=O)NO)c4C3)[nH]c2C1 [Compound 14-1, 2-(5-acetyl-4,5,6,7-tetrahydro-3H-imidazo[4,5-c]pyridin-2-yl)-N-hydroxyisoindoline-4-carboxamide hydrochloride]
- IC50: > 1000 nM

SMILES: O=C(NO)c1cccc2c1CN(c1nc3c(o1)CCC(C(F)(F)F)C3)C2 (stereo not shown) [Compound 16-1, N-hydroxy-2-(5-(trifluoromethyl)-4,5,6,7-tetrahydrobenzo[d]oxazol-2-yl)isoindoline-4-carboxamide]
- IC50: < 500 nM

SMILES: CC1(C)c2cccc(C(=O)NO)c2CN1c1nc2ccc(C(F)(F)F)cc2o1 [Compound 18-3, N-hydroxy-1,1-dimethyl-2-(6-(trifluoromethyl)benzo[d]oxazol-2-yl)isoindoline-4-carboxamide]
- IC50: < 500 nM

SMILES: CC1(C)c2cccc(C(=O)NO)c2CN1c1nc2c(o1)CCC(C(F)(F)F)C2 (stereo not shown) [Compound 19-1, N-hydroxy-1,1-dimethyl-2-[5-(trifluoromethyl)-4,5,6,7-tetrahydro-1,3-benzoxazol-2-yl]-2,3-dihydro-1H-isoindole-4-carboxamide]
- IC50: < 500 nM

SMILES: CC1(C)c2cccc(C(=O)NO)c2CN1c1nc2c(o1)CC(C(F)(F)F)CC2 (stereo not shown) [Compound 19-2, N-hydroxy-1,1-dimethyl-2-(6-(trifluoromethyl)-4,5,6,7-tetrahydrobenzo[d]oxazol-2-yl)isoindoline-4-carboxamide]
- IC50: < 500 nM

SMILES: CC1(C)c2cccc(C(=O)NO)c2CN1c1nc2ncccc2s1 [Compound 20-1, N-hydroxy-1,1-dimethyl-2-(thiazolo[4,5-b]pyridin-2-yl)isoindoline-4-carboxamide]
- IC50: > 1000 nM

SMILES: CC1(C)c2cccc(C(=O)NO)c2CN1c1nc2cc(C(F)(F)F)ccc2s1 [Compound 20-2, N-hydroxy-1,1-dimethyl-2-(5-(trifluoromethyl)benzo[d]thiazol-2-yl)isoindoline-4-carboxamide]
- IC50: < 500 nM

SMILES: CC1(C)c2cccc(C(=O)NO)c2CN1c1nc2cnccc2o1 [Compound 21-1, N-hydroxy-1,1-dimethyl-2-(oxazolo[4,5-c]pyridin-2-yl)isoindoline-4-carboxamide]
- IC50: < 500 nM

SMILES: CC1(C)c2cccc(C(=O)NO)c2CN1c1nc2ccccc2s1 [Compound 22-1, 2-(benzo[d]thiazol-2-yl)-N-hydroxy-1,1-dimethylisoindoline-4-carboxamide]
- IC50: < 500 nM

SMILES: CC1(C)c2cccc(C(=O)NO)c2CN1c1ccc2ccccc2n1 [Compound 22-5, N-hydroxy-1,1-dimethyl-2-(quinolin-2-yl)isoindoline-4-carboxamide]
- IC50: < 500 nM

SMILES: CC1(C)c2cccc(C(=O)NO)c2CN1c1nc(C(F)(F)F)cs1 [Compound 22-9, N-hydroxy-1,1-dimethyl-2-(4-(trifluoromethyl)thiazol-2-yl)isoindoline-4-carboxamide]
- IC50: > 1000 nM

SMILES: CC1(C)c2cccc(C(=O)NO)c2CN1c1ccc2cc(C(F)(F)F)ccc2n1 [Compound 23-1, N-hydroxy-1,1-dimethyl-2-(6-(trifluoromethyl)quinolin-2-yl)isoindoline-4-carboxamide]
- IC50: < 500 nM

SMILES: CC1(C)c2cccc(C(=O)NO)c2CN1c1ccc2ccc(C(F)(F)F)cc2n1 [Compound 23-2, N-hydroxy-1,1-dimethyl-2-(7-(trifluoromethyl)quinolin-2-yl)isoindoline-4-carboxamide]
- IC50: 500 to 1000 nM

SMILES: CC1(C)c2cccc(C(=O)NO)c2CN1c1ccc2nc(C(F)(F)F)ccc2n1 [Compound 24-1, N-hydroxy-1,1-dimethyl-2-(6-(trifluoromethyl)-1,5-naphthyridin-2-yl)isoindoline-4-carboxamide]
- IC50: < 500 nM

SMILES: CC1(C)c2cccc(C(=O)NO)c2CN1c1nc2ccccc2o1 [Compound 25-1, 2-(benzo[d]oxazol-2-yl)-N-hydroxy-1,1-dimethylisoindoline-4-carboxamide]
- IC50: < 500 nM

SMILES: CC1(C)c2cccc(C(=O)NO)c2CN1c1nc2nc(C(F)(F)F)ccc2o1 [Compound 26-1, N-hydroxy-1,1-dimethyl-2-(5-(trifluoromethyl)oxazolo[4,5-b]pyridin-2-yl)isoindoline-4-carboxamide]
- IC50: < 500 nM

SMILES: CC1(C)c2cccc(C(=O)NO)c2CN1c1nc2ncc(C(F)(F)F)cc2o1 [Compound 26-2, N-hydroxy-1,1-dimethyl-2-(6-(trifluoromethyl)oxazolo[4,5-b]pyridin-2-yl)isoindoline-4-carboxamide]
- IC50: < 500 nM

SMILES: CC1(C)c2cccc(C(=O)NO)c2CN1c1ccc(C(F)(F)F)c(C#N)n1 [Compound 27-1, 2-(6-cyano-5-(trifluoromethyl)pyridin-2-yl)-N-hydroxy-1,1-dimethylisoindoline-4-carboxamide]
- IC50: < 500 nM

SMILES: CC1(C)c2cccc(C(=O)NO)c2CN1c1cc(C#N)c(C(F)(F)F)cn1 [Compound 27-2, 2-(4-cyano-5-(trifluoromethyl)pyridin-2-yl)-N-hydroxy-1,1-dimethylisoindoline-4-carboxamide]
- IC50: < 500 nM
